Source: article PMC6792352, “Limited Chemical Structural Diversity Found to Modulate Thyroid Hormone Receptor in the Tox21 Chemical Library” (Environmental Health Perspectives, 2019)
One block for each compound: values may come before it.

Legend:
[1] = tested on: thyroid hormone receptor (TR); assay: Classification of TR actives across characterization assays (TR-Ag / RXR-Ag; TR model binary); design: key to Categorization Code: FP, false positive; details: for TR_Model_Binary_Agonist / TR_Model_Binary_Antagonist: candidate chemicals in Tables 2 and 3 define actives
Method in brief: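 GH3-TRE qHTS agonist, antagonist and viability modes over 8,305 compounds; 84 candidates rescreened in GH3-TRE-Ag, TRβ- and RXRα-UAS-bla HEK 293T one-hybrid assays, HEK293T viability, and TRα/TRβ coactivator recruitment. Actives classified binary after removing pharmaceuticals.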

estrogen receptor = tested on: estrogen receptor; design: method as in Judson et al. 2015; details: model values ≥0.1 define actives; ref Judson et al. 2015; cited from earlier work
[2] = tested on: thyroid hormone receptor (endogenous TRα and TRβ); assay: cells; design: species or system GH3-TRE-Luc (rat pituitary); GH3-TRE-Luc luciferase reporter transactivation, agonist mode, qHTS; RXR ligands can also activate indirectly; details: 24 h, read-out: TR_LUC_GH3_Agonist_AC50 (uM)
in vitro [3] = assay: in vitro; design: species or system GH3-TRE-Luc (rat pituitary); CellTiter-Fluor viability run in parallel with antagonist mode (1 nM T3), loss of viability; details: rat, gh3-tre-luc cells, 1 nM T3 present
[4] = tested on: thyroid hormone receptor (endogenous TRα and TRβ); assay: cells; design: species or system GH3-TRE-Luc (rat pituitary); GH3-TRE-Luc luciferase reporter, antagonist mode against 1 nM T3, loss of signal, qHTS; details: 24 h, antagonist mode, 1 nM T3, read-out: AC50 (uM) modified / 1000
[5] = biological target: human retinoid X receptor alpha (RXRα) ligand-binding domain of the GeneBLAzer RXRα-UAS-bla HEK 293T one-hybrid assay (human)
[6] = tested on: thyroid hormone receptor (endogenous TRα and TRβ); assay: GH3-TRE-Antag-Followup confirmation (TOX21_TR_LUC_GH3_Antagonist_Followup, aeid 2227); format: cell-based, rat; details: Table S3, aeid 2227
[7] = biological target: T1, human TRβ ligand-binding domain (Homo sapiens, UniProt P10828); assay: TRb-bla antagonist mammalian one-hybrid beta-lactamase assay (TOX21_TRB_BLA_Antagonist_Followup, aeid 2238-2240); format: cell-based; details: for Emax: read-out: resp_max (maximum response value)
T1 sequence (P10828 217-461 limits assumed): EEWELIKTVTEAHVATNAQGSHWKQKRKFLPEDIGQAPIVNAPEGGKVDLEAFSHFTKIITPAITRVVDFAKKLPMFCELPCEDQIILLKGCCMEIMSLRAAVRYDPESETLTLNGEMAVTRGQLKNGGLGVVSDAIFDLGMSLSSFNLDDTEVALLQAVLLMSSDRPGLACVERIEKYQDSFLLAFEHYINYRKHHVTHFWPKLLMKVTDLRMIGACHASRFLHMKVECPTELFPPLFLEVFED

in vitro [8] = details: rat, gh3-tre-luc cells, AC50 (uM) modified / 1000
[9] = tested on: thyroid hormone receptor (endogenous TRα and TRβ); assay: GH3-TRE-Ag primary qHTS, luciferase reporter, agonist mode (TOX21_TR_LUC_GH3_Agonist, aeid 803); format: cell-based, rat
[10] = tested on: thyroid hormone receptor (endogenous TRα and TRβ); assay: GH3-TRE-Ag-Followup confirmation (TOX21_TR_LUC_GH3_Agonist_Followup, aeid 2226); format: cell-based, rat
human RXRα = biological target: T2, human RXRα (Homo sapiens, UniProt P19793); assay: RXRa-bla-Ag mammalian one-hybrid beta-lactamase assay (TOX21_TR_RXR_BLA_Agonist_Followup_ratio, aeid 2253); format: cell-based
T2 construct: host or cells: GeneBLAzer UAS-bla HEK 293T
T2 sequence (P19793 227-458 limits assumed): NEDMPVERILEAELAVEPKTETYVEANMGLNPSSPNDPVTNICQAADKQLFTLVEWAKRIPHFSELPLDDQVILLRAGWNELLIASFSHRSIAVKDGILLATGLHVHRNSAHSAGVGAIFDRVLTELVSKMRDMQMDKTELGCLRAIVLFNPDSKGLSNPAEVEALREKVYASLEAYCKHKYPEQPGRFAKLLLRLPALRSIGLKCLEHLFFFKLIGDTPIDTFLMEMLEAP

[11] = biological target: T3, TRα ligand-binding domain (Homo sapiens, UniProt P10827); assay: TRa-coa LanthaScreen TR-FRET coactivator (SRC-2 peptide) recruitment, agonist (TOX21_TRA_COA_Agonist_Followup_ratio, aeid 2230); format: biochemical
T3 construct: the receptor LBDs expressed as glutathione S-transferase (GST) fusion proteins; purchased

luciferase = luciferase (Photinus pyralis, UniProt P08659); assay: Luciferase inhibition
GH3-TRE-Luc cell line [12] = details: read-out: AC50 (uM) modified / 1000; Tox21_110001=Tox21_303049; viability, 1 nM T3 present, 24 h
[13] = biological target: T1, human TRβ ligand-binding domain; assay: TRb-bla agonist mammalian one-hybrid beta-lactamase assay (TOX21_TRB_BLA_Agonist_Followup_ratio, aeid 2236); format: cell-based; design: host or cells: GeneBLAzer UAS-bla HEK 293T
[14] = biological target: T1, human TRβ ligand-binding domain; assay: TRb-coa LanthaScreen TR-FRET coactivator (SRC-2 peptide) recruitment, agonist (TOX21_TRB_COA_Agonist_Followup_ratio, aeid 2244); format: biochemical; design: host or cells: GeneBLAzer UAS-bla HEK 293T
GH3-TRE-Luc cell line [15] = assay: GH3-TRE-Via cell viability, CellTiter-Fluor (TOX21_TR_LUC_GH3_Antagonist_viability, aeid 805)
[16] = tested on: thyroid hormone receptor (endogenous TRα and TRβ); assay: cells; design: species or system GH3-TRE-Luc (rat pituitary); GH3-TRE-Luc luciferase reporter, antagonist mode against 1 nM T3, loss of signal, qHTS; details: 24 h; antagonist mode, 1 nM T3; no GH3 cytotoxicity hit; read-out: Average AC50 (uM) GH3-TRE-Antag

T3 sequence (P10827 163-410 isoform P10827-2 limits assumed, other chains not shown): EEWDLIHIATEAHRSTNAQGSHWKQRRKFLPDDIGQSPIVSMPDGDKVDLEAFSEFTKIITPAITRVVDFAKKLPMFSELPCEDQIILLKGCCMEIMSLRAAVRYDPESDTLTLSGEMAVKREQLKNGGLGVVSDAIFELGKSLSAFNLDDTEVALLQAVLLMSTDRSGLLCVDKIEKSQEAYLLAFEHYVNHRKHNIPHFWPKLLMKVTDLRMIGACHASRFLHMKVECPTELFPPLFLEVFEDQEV
luciferase, sequence (P08659 whole entry, species assumed): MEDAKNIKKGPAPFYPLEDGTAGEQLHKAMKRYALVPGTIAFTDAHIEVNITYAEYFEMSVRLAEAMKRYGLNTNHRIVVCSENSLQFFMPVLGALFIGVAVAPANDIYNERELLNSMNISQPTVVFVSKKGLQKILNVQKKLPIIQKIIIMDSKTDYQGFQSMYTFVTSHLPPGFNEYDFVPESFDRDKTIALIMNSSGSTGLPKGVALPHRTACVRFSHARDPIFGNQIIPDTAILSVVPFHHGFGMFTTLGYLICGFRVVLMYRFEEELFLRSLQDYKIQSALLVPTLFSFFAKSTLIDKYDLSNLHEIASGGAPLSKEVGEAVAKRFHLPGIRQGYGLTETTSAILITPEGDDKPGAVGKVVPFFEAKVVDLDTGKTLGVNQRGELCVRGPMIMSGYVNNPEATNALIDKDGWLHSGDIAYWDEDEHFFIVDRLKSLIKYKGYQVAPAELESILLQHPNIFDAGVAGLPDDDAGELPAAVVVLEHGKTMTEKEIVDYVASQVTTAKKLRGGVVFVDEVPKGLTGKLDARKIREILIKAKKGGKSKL

TR_Model_Binary_Agonist [1]: 0
TR_Model_Binary_Antagonist [1]: 0
Compound: (-)-alpha-Pinene
ER_Model_AUC_Agonist (estrogen receptor): 0
ER_Model_AUC_Antagonist (estrogen receptor): 0

Compound: C1=CCC=C1 [1,3-Cyclopentadiene]
AC50 [2]: > 90 µM
CC50 at 24 h (in vitro [3]; AC50 (uM) modified / 1000, Tox21_110001=Tox21_302134, viability): > 90 µM
AC50 ([4]; Tox21_110001=Tox21_302134): > 90 µM

TR_Model_Binary_Agonist [1]: 0
TR_Model_Binary_Antagonist [1]: 0
Compound: C=C1CCC2CC1C2(C)C (single isomer, unassigned; (-)) [(-)-beta-Pinene]
ER_Model_AUC_Agonist (estrogen receptor): 0
ER_Model_AUC_Antagonist (estrogen receptor): 0

Compound: CCOP(=S)(Oc1ccc([N+](=O)[O-])cc1)c1ccccc1 (stereo not shown) [EPN]
AC50 [2]: > 90 µM
CC50 at 24 h (in vitro [3]; AC50 (uM) modified / 1000, Tox21_110001=Tox21_300424, viability): > 90 µM
AC50 ([4]; Tox21_110001=Tox21_300424): > 90 µM

Compound: CCOP(=O)(CN(CCO)CCO)OCC [Diethyl((diethanolamino)methyl)phosphonate]
AC50 [2]: > 90 µM
CC50 at 24 h (in vitro [3]; AC50 (uM) modified / 1000, Tox21_110001=Tox21_301894, viability): > 90 µM
AC50 ([4]; Tox21_110001=Tox21_301894): > 90 µM

Compound: CCS(=O)(=O)CCSP(=O)(OC)OC [Demeton-S-methylsulphon]
AC50 [2]: > 90 µM
CC50 at 24 h (in vitro [3]; AC50 (uM) modified / 1000, Tox21_110001=Tox21_301575, viability): > 90 µM
AC50 ([4]; Tox21_110001=Tox21_301575): > 90 µM

RXRa-bla-Ag AC50 (β-lactamase reporter gene, RXRα-UAS-bla HEK 293T mammalian one-hybrid assay, agonist mode) [5]: 10.5 µM
Compound: Sincalide (peptide)

Compound: ClCc1ccccc1 [Benzyl chloride]
AC50 [2]: > 90 µM
CC50 at 24 h (in vitro [3]; AC50 (uM) modified / 1000, Tox21_110001=Tox21_200266, viability): > 90 µM
AC50 ([4]; Tox21_110001=Tox21_200266): > 90 µM

Compound: O=C(O)c1cccnc1Nc1cccc(C(F)(F)F)c1 [Niflumic acid]
flag (text output for the level 6 method) [6]: Borderline inactive
hitc [6]: 0
modl_tp (top asymptote for the winning model) [6]: 11.5978 percent_activity
resp_max (maximum response value) [6]: 41.1677 percent_activity
hitc ([7]; Table S3, aeid 2238, ch1): 0
Emax ([7]; Table S3, aeid 2238, ch1): 36.4%
hitc ([7]; Table S3, aeid 2239, ch2): 0
Emax ([7]; Table S3, aeid 2239, ch2): 24.1%
hitc ([7]; Table S3, aeid 2240, ratio): 0
Emax ([7]; Table S3, aeid 2240, ratio): 46.2%
CC50 at 24 h (in vitro [8]): > 50 µM

Compound: CCOP(=S)(OCC)SCCl [Chlormephos]
AC50 [2]: > 90 µM
CC50 at 24 h (in vitro [3]; AC50 (uM) modified / 1000, Tox21_110001=Tox21_300825, viability): > 90 µM
AC50 ([4]; Tox21_110001=Tox21_300825): > 90 µM

Compound: CN(C)c1ccc(N=O)cc1 [N,N-dimethyl-4-nitrosoaniline]
EMax (% of Control) gh3-tre-agonist [9]: 31.0 % of Control
GH3-TRE-Ag AC50 hitc ([9]; hit call from tcpl): 1
AC50 ([9]; read-out: GH3-TRE-Ag AC50): 12.3 µM
EMax (% of Control) gh3-tre-agonist-followup-1_agonist [10]: 47.7 % of Control
GH3-TRE-Ag-Followup hitc ([10]; hit call from tcpl): 1
AC50 ([10]; read-out: GH3-TRE-Ag-Followup AC50): 9.01 µM
AC50 (human RXRα): > 92 µM
tr-followup-rxr-bla-agonist-1 hitc (human RXRα; hit call from tcpl): 0
Emax (human RXRα; read-out: EMax (% of Control) tr-followup-rxr-bla-agonist-1): 1.8%
AC50 ([11]; agonist, read-out: TRa-coa AC50): > 92 µM
TRa-coa hitc ([11]; hit call from tcpl, agonist): 0
Emax ([11]; read-out: EMax (% of Control) tra-coa-agonist-followup-1): -0.217%
Categorization Code ([1]; TR agonist characterization): FP
luciferase inhibition (luciferase): luciferase inhibitor
CC50 (GH3-TRE-Luc cell line [12]): 8.37 µM
CC50 at 24 h (in vitro [8]): 5.44 µM
AC50 ([13]; agonist, read-out: TRb-bla AC50): > 92 µM
TRb-bla hitc ([13]; hit call from tcpl, agonist): 0
Emax ([13]; read-out: EMax (% of Control) trb-bla-agonist-followup-1): 8.4%
AC50 ([14]; agonist, read-out: TRb-coa AC50): > 92 µM
TRb-coa hitc ([14]; hit call from tcpl, agonist): 0
Emax ([14]; read-out: EMax (% of Control) trb-coa-agonist-followup-1): -0.165%
AC50 (GH3-TRE-Luc cell line [15]; Rattus norvegicus, read-out: TR_LUC_GH3_Antagonist_viability AC50 (uM)): 6.9 µM
TR_LUC_GH3_Antagonist_viability hitc (GH3-TRE-Luc cell line [15]; hit call from tcpl): 1

Compound: [CH3][Sn]([CH3])([Cl])[Cl] [Dimethyltin dichloride]
CC50 at 24 h (in vitro [3]; AC50 (uM) modified / 1000, Tox21_110001=Tox21_201249, viability): 79.3 µM

Compound: C[C@]12CC[C@@H]3c4ccc(OC(=O)N(CCCl)CCCl)cc4CC[C@H]3[C@@H]1CC[C@@H]2OP(=O)(O)O [Estramustine phosphate]
AC50 [2]: > 50 µM
AC50 [16]: 42.9 µM
CC50 at 24 h (in vitro [3]; AC50 (uM) modified / 1000, Tox21_110001=Tox21_113033, viability): > 50 µM

Compound: CCOP(=S)(OCC)SCSc1cc(Cl)ccc1Cl [Phenkapton]
AC50 [2]: > 90 µM
CC50 at 24 h (in vitro [3]; AC50 (uM) modified / 1000, Tox21_110001=Tox21_301741, viability): > 90 µM
AC50 ([4]; Tox21_110001=Tox21_301741): > 90 µM

Compound: C[C@]12CC[C@@H]3c4ccc(OC(=O)N(CCCl)CCCl)cc4CC[C@H]3[C@@H]1CC[C@@H]2OP(=O)(O)O [Estramustine phosphate sodium]
AC50 ([4]; Tox21_110001=Tox21_113375): > 50 µM

Compound: [CH3][Sn]([Cl])([Cl])[Cl] [Trichloromethylstannane]
CC50 at 24 h (in vitro [3]; AC50 (uM) modified / 1000, Tox21_110001=Tox21_202322, viability): > 90 µM

Compound: CCOP(=O)(OCC)Oc1nc(Cl)c(Cl)cc1Cl [Chlorpyrifos oxon]
AC50 [2]: > 90 µM
CC50 at 24 h (in vitro [3]; AC50 (uM) modified / 1000, Tox21_110001=Tox21_301063, viability): 60.1 µM
